One assay has as its target T1, FGFR3 (Homo sapiens, UniProt P22607).
T1 construct: if the value comes from the Ba/F3-TEL-FGFR3 test; If it comes from the purified enzyme, only the vendor's tag
Kind of assay: FGFR3 (Enzymatic Assay). Type of assay: biochemical. Here is the method: Kinase activity assay with purified FGFR3 (Upstate) is carried out in a final volume of 10 μL containing 0.25 μg/mL of enzyme in kinase buffer (30 mM Tris-HCl pH7.5, 15 mM MgCl2, 4.5 mM MnCl2, 15 μM Na3VO4 and 50 μg/mL BSA), and substrates (5 μg/mL biotin-poly-EY(Glu, Tyr) (CIS-US, Inc.) and 3 μM ATP). Two solutions are made: the first solution of 5 μl contains the FGFR3 enzyme in kinase buffer was first dispensed into 384-format ProxiPlate® (Perkin-Elmer) followed by adding […] of compounds dissolved in DMSO, then […] of second solution contains the substrate (poly-EY) and ATP in kinase buffer was added to each wells. The reactions are incubated at room temperature for one hour, stopped by adding 10 μL of HTRF detection mixture, which contains 30 mM Tris-HCl pH7.5, 0.5 M KF, 50 mM ETDA, 0.2 mg/mL BSA, 15 μg/mL streptavidin-XL665 (CIS-US, Inc.) and 150 ng/mL cryptate conjugated anti-phosphotyrosine antibody (CIS-US, Inc.). After one hour of room temperature incubation to allow for streptavidin-biotin interaction, time resolved florescent signals are read on Analyst GT (Molecular Devices Corp.). IC50 values are calculated by […] analysis of the percentage inhibition of each compound at 12 concentrations (1:3 dilution from 50 μM to 0.28 nM).

In another assay the target is B-RAF (Homo sapiens, UniProt P15056). Put plainly: b-Raf Enzymatic Assay. It is filed as biochemical. Here is the method: Compounds of the invention are tested for their ability to inhibit the activity of b-Raf. The assay is carried out in 384-well MaxiSorp plates (NUNC) with black walls and clear bottom. The substrate, IκBα is diluted in DPBS (1:750) and 15 μl is added to each well. The plates are incubated at 4° C. overnight and washed 3 times with TBST (25 mM Tris, pH 8.0, 150 mM NaCl and 0.05% Tween-20) using the EMBLA plate washer. Plates are blocked by Superblock (15 μl/well) for 3 hours at room temperature, washed 3 times with TBST and pat-dried. Assay buffer containing 20 μM ATP (10 μl) is added to each well followed by 100 nl or 500 nl of compound. B-Raf is diluted in the assay buffer (1 μl into 25 μl) and 10 μl of diluted b-Raf is added to each well (0.4 μg/well). The plates are incubated at room temperature for 2.5 hours. The kinase reaction is stopped by washing the plates 6 times with TBST. Phosph-IκBα (Ser32/36) antibody is diluted in Superblock (1:10,000) and 15 μl is added to each well. The plates are incubated at 4° C. overnight and washed 6 times with TBST. AP-conjugated goat-anti-mouse IgG is diluted in Superblock (1:1,500) and 15 μl is added to each well. Plates are incubated at room temperature for 1 hour and washed 6 times with TBST. […] Plates are read on Acquest or Analyst GT using a Fluorescence Intensity Program (Excitation 455 nm, Emission 580 nm).

In US8183248B2, “Substituted pyrrolo[2,3-d]pyrimidines and compositions as protein kinase inhibitors” (IRM LLC, priority 2005, dated 2012) one finds IC50 data, which are given here for one compound.

B-RAF, sequence (P15056 whole entry): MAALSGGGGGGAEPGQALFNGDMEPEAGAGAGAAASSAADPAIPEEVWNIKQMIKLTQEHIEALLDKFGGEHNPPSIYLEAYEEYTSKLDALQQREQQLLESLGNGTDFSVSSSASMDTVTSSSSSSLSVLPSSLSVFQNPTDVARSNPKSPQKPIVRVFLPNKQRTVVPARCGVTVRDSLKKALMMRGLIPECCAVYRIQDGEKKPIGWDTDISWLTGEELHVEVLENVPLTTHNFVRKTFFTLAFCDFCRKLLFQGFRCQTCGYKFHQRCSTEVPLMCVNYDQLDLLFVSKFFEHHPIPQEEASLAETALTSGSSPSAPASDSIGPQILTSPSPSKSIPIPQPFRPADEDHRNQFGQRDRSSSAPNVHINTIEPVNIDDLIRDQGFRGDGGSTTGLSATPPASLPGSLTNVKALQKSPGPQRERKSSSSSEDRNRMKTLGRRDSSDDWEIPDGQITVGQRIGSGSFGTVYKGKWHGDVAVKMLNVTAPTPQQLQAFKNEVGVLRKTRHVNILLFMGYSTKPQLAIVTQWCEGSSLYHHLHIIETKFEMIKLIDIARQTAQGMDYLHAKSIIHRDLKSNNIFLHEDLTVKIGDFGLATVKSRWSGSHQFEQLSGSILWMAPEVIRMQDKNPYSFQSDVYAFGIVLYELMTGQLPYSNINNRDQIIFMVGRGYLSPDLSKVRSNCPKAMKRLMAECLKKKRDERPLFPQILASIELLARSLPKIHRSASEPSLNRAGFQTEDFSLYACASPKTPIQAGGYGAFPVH
T1 sequence (P22607 whole entry): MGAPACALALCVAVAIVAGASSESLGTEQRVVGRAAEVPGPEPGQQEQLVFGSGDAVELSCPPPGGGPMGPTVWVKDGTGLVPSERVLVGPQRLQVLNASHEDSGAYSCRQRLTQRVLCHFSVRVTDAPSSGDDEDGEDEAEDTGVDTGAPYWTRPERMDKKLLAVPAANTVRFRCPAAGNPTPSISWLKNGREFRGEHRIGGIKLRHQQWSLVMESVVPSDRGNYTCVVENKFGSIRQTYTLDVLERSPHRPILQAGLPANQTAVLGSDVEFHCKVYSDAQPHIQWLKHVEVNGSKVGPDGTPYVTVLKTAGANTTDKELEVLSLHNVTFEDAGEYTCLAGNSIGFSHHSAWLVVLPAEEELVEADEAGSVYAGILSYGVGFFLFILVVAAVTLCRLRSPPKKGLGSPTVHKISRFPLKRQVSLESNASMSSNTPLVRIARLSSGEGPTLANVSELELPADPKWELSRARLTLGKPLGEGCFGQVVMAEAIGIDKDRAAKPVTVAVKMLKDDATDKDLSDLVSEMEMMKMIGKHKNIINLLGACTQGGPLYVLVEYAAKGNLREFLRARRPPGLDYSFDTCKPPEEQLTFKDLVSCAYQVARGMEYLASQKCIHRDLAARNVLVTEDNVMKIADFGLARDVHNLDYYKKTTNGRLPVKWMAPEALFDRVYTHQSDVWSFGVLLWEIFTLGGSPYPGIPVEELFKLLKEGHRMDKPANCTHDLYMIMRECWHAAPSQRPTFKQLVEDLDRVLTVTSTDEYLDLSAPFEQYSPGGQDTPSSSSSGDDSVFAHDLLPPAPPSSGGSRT

A word on the IC50: it is the concentration that inhibits the measured activity by half. On to `CCN1CCN(Cc2ccc(NC(=O)c3ccc(C)c(NC(=O)N(C)c4ncnc5[nH]ccc45)c3)cc2C(F)(F)F)CC1` [Example 4, N-[4-(4-Ethyl-piperazin-1-ylmethyl)-3-trifluoromethyl-phenyl]-4-methyl-3-[3-methyl-3-(7H-pyrrolo[2,3-d]pyrimidin-4-yl)-ureido]-benzamide], for which the IC50 against FGFR3 was found to be 36 nM; on B-RAF it was 100 nM.
